Test results: US11504364B2, “Inhibitors of fibroblast activation protein” (Praxis Biotech LLC, priority 2018, dated 2022)
Read-outs that look alike come from different tables or passages of the source.

Key:
[1] = molecular target: T1, recombinant human DPP9 (rhDPP9) (Homo sapiens (Human), UniProt Q86TI2); assay: Inhibition of DPP9 activity, 10 ng rhDPP9, H-Gly-Pro-AMC; assay type: biochemical; settings: Table 3B
[2] = molecular target: T1, recombinant human DPP9 (rhDPP9); assay: DPP9 enzymatic activity assay; assay type: biochemical; settings: Table 3A
[3] = test system: human AML cell line MV4-11; assay: Cytotoxicity assay in human leukemia cell lines (Cell-Titer Glo)
[4] = molecular target: circulating FAPα from hamster plasma (Mesocricetus auratus, UniProt A0ABM2XF29); assay: Ex vivo inhibition of circulating FAPα activity in hamster plasma (PRXS-AMC); assay type: biochemical, Golden Syrian hamster; settings: PRXS-AMC substrate
circulating FAPα from hamster plasma, sequence (A0ABM2XF29 1-761): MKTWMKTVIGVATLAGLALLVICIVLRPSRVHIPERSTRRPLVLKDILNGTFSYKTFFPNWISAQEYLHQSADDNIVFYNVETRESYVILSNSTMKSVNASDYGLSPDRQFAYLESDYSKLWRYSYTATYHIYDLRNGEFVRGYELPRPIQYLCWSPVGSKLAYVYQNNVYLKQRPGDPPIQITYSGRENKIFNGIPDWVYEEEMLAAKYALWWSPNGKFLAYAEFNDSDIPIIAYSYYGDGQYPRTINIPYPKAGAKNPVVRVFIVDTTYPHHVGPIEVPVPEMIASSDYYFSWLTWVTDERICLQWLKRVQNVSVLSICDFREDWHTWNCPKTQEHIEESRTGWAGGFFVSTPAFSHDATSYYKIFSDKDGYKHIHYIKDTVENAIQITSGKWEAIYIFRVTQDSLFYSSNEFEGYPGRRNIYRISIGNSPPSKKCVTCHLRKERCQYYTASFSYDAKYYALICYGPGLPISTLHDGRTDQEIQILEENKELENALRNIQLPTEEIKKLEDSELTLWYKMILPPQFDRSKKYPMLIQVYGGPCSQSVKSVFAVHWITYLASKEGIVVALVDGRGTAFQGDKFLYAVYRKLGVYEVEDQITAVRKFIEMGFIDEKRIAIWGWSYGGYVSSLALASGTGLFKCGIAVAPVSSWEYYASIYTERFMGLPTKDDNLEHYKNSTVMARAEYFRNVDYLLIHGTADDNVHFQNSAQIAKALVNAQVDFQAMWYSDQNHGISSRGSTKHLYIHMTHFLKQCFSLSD
Procedure: Male Golden Syrian hamsters were provided by National Laboratory Animal Center (NLAC) in Taiwan. The animals were maintained in a hygienic environment under controlled temperature (20-24° C.) and humidity (50%-80%) with 12 hours light/dark cycles. Free access to standard lab diet [MFG (Oriental Yeast Co., Ltd. Japan)] and autoclaved tap water were granted. All aspects of this work including housing, experimentation and disposal of animals were performed in general accordance with the “Guide for the Care and Use of Laboratory Animals: Eighth Edition” (National Academies Press, Washington, D.C., 2011). In addition, the animal care and use protocol was reviewed and approved by the IACUC at Pharmacology Discovery Services Taiwan, Ltd. Immediately after the sacrifice of hamsters, blood samples were collected via terminal cardiac puncture in tubes coated with EDTA-K2, mixed gently, then kept on ice and centrifuged at 2,500×g for 15 minutes at 4° C. After plasma separation, samples were stored at −80° C. in aliquots of […]. To assay exemplary compounds in hamster plasma, a similar protocol as described for human plasma was performed diluting thawed plasma 1:2 in assay buffer. […] AMC release was detected measuring fluorescence at an excitation/emission wavelength of 380/460 nm using a Multifunction Microplate Reader. […]

[5] = molecular target: recombinant human FAPα (rhFAPα) (Homo sapiens (Human), UniProt Q12884); assay: FAPα enzymatic exopeptidase (dipeptidase) activity assay, Z-Gly-Pro-AMC; assay type: biochemical; settings: for inhibition at 1 µM / rhFAPα (% exo inh @ 1 μM): 1 μM test compound, exopeptidase; for inhibition at 1 µM: read-out: rhFAPα (% exo inh @ 1 μM)
recombinant human FAPα (rhFAPα), sequence (Q12884 whole entry): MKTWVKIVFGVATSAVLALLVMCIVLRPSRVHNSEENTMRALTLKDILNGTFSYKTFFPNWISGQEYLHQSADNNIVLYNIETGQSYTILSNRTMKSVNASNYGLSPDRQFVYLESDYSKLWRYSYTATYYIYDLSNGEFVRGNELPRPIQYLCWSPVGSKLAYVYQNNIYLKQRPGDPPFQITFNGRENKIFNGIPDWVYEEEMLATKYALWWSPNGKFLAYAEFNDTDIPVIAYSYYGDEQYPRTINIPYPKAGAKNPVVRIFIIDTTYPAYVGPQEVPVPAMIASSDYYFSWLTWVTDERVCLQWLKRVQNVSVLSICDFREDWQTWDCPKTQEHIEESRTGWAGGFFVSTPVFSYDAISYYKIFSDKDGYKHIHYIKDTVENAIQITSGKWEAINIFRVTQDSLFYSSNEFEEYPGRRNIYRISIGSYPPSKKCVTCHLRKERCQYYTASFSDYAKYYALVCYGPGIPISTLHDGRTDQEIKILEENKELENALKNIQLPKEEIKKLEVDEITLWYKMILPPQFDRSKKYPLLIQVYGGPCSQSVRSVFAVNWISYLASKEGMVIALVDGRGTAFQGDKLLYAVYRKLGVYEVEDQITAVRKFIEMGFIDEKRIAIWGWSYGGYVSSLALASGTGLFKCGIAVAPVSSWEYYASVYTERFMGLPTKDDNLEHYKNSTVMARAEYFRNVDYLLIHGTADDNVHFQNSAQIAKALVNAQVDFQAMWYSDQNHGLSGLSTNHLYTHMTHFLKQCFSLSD

[6] = molecular target: recombinant human DPPIV (rhDPPIV) (Homo sapiens (Human), UniProt P27487); assay: DPPIV enzymatic activity assay; assay type: biochemical; settings: Table 3B
recombinant human DPPIV (rhDPPIV), sequence (P27487 whole entry): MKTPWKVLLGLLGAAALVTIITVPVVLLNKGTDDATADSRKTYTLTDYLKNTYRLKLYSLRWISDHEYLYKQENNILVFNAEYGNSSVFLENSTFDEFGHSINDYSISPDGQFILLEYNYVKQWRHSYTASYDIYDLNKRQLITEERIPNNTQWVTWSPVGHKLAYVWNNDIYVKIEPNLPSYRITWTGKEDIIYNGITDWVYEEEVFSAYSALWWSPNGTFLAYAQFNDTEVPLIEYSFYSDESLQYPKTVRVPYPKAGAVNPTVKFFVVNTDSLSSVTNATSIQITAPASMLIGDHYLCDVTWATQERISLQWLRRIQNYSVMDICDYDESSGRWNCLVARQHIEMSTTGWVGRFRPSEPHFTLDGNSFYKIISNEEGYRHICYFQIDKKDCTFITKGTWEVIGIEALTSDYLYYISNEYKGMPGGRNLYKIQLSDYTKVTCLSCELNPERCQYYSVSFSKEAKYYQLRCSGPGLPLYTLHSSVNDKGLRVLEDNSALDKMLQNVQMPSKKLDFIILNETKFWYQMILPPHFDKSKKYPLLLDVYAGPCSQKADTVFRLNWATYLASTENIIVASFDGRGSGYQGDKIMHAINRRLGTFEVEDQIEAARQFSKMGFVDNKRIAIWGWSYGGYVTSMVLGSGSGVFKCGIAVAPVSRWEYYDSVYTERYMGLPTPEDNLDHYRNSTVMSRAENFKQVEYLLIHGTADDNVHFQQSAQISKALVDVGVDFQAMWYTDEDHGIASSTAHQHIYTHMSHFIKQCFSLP

[7] = molecular target: recombinant mouse PREP (rmPREP) (Mus musculus (Mouse), UniProt Q9QUR6); assay: PREP enzymatic activity assay; assay type: biochemical; settings: Table 3A
[8] = molecular target: recombinant mouse DPPIV (rmDPPIV) (Mus musculus (Mouse), UniProt P28843); assay: DPPIV enzymatic activity assay; assay type: biochemical; settings: Table 3A
[9] = molecular target: recombinant mouse FAPα (rmFAPα) (Mus musculus (Mouse), UniProt P97321); assay: FAPα enzymatic exopeptidase (dipeptidase) activity assay, Z-Gly-Pro-AMC; assay type: biochemical; settings: 1 μM test compound
recombinant mouse FAPα (rmFAPα), sequence (P97321 whole entry): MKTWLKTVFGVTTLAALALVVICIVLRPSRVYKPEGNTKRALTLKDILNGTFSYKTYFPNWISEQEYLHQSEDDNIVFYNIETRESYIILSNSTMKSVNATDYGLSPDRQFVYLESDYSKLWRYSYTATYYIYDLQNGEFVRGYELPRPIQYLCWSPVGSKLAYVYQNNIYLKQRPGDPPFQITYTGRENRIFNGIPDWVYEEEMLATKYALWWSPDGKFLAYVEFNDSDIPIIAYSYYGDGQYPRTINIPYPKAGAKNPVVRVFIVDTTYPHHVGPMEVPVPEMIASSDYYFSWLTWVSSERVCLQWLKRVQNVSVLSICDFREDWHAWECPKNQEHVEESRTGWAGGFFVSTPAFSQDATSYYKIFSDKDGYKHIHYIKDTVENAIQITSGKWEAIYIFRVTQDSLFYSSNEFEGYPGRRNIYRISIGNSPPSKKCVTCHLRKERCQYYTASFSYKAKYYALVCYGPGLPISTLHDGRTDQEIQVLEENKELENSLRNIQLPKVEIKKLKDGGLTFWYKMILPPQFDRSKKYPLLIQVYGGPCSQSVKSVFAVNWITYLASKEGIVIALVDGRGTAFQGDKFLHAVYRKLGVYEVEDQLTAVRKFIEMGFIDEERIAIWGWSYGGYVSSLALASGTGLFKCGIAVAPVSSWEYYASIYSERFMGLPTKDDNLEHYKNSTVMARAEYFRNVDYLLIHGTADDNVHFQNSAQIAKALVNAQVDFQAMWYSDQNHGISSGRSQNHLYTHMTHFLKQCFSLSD

[10] = molecular target: recombinant human PREP (rhPREP) (Homo sapiens (Human), UniProt P48147); assay: PREP enzymatic activity assay; assay type: biochemical; settings: Table 3B
recombinant human PREP (rhPREP), sequence (P48147 whole entry): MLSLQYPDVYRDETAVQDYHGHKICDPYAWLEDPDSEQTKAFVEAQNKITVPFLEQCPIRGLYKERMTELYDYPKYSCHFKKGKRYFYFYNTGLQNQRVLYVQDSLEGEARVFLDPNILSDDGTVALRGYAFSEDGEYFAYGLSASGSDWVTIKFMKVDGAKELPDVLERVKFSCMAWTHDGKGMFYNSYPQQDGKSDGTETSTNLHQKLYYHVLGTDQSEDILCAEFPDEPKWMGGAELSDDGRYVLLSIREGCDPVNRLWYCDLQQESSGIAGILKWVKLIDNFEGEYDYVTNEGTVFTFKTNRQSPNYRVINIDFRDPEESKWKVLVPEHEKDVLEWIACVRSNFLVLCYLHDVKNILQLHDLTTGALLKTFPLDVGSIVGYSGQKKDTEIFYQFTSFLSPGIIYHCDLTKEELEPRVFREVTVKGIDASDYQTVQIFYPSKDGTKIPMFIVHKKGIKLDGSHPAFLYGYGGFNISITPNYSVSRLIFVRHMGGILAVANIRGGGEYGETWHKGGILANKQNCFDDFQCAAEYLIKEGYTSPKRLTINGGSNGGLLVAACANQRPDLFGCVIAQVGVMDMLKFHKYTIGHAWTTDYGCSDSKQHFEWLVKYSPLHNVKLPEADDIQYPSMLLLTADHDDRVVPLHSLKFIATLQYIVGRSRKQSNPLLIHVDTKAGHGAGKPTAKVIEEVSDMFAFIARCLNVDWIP

[11] = upon standing in pH 7.8; cyclization; cited from earlier work
[12] = Homo sapiens, MV4-11, 48 h, read-out: MV4-11 viability IC50, μM

T1 sequence (Q86TI2 whole entry): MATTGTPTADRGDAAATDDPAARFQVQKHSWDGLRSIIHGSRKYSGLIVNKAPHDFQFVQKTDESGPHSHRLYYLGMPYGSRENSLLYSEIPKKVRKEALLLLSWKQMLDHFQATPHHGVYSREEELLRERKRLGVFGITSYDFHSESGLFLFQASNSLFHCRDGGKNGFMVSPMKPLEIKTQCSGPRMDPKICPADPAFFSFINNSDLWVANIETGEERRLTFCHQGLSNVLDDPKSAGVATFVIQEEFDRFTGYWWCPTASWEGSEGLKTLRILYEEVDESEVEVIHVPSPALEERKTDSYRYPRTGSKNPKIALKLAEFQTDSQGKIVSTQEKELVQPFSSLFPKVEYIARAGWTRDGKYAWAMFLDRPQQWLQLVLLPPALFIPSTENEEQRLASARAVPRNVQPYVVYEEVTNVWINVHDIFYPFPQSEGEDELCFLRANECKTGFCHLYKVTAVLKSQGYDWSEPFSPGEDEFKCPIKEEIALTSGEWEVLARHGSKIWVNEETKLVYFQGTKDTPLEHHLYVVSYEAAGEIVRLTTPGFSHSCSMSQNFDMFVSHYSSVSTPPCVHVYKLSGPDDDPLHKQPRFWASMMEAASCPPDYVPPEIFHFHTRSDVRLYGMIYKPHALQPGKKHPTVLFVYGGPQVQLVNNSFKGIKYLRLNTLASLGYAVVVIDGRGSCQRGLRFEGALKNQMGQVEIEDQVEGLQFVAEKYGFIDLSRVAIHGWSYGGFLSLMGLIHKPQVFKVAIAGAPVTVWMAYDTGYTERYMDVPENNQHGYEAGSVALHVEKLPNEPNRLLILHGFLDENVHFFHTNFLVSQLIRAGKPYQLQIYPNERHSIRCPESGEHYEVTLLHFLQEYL

SMILES | IC50 [1] [nM] | inhibition at 1 µM ([5]; Table 3B) [%] | IC50 [6] [nM] | IC50 [5] [nM] | other results
N#C[C@@H]1CC(F)(F)CN1C(=O)CNC(=O)c1ccnc2ccc(-c3ccc(Cl)cc3)cc12 [Compound 2, (S)-6-(4-chlorophenyl)-N-(2-(2-cyano-4,4-difluoropyrrolidin-1-yl)-2-oxoethyl)quinoline-4-carboxamide] | < 1000 |  |  |  | IC50 [2]: < 1000 nM; IC50 [3, 12]: 3 to 10 µM; IC50 [4]: < 1000 nM
C[C@@H](NC(=O)c1ccnc2ccc(-c3ccc(Cl)cc3)cc12)C(=O)N1CC(F)(F)C[C@H]1C#N [Compound 26] | < 1000 | 25 to 50 | > 10000 |  | 
N#C[C@@H]1CC(F)(F)CN1C(=O)CNC(=O)c1ccnc2ccc(-c3ccc4c(c3)CCNC4)cc12 [Compound 114] |  | > 50 | > 10000 |  | 
N#C[C@@H]1CC(F)(F)CN1C(=O)CNC(=O)c1ccnc2ccccc12 [Ref. Comp.] |  |  |  |  | IC50 [7]: > 10000 nM; IC50 [8]: > 10000 nM; rhFAPα (% exo inh @ 1 μM) [5]: +++ (+++ refers to > 50% inhibition at 1 μM test compound); rhFAPα (% exo inh @ 1 μM) ([5]; Table 3B): +++ (+++ refers to > 50% inhibition at 1 μM test compound); rmFAPα (% exo inh @ 1 μM) [9]: +++ (+++ refers to > 50% inhibition at 1 μM test compound)
CC(C)[C@@H](NC(=O)c1ccnc2ccc(-c3ccc(Cl)cc3)cc12)C(=O)N1CC(F)(F)C[C@H]1C#N [Compound 28] | > 10000 | < 25 | > 10000 |  | IC50 [10]: > 10000 nM
N#C[C@@H]1CC(F)(F)CN1C(=O)CNC(=O)c1ccnc2ccc(-c3ccc4c(c3)C(=O)NCC4)cc12 [Compound 107] | < 1000 | > 50 | 1000 to 10000 | < 1000 | 
N#C[C@@H]1CC(F)(F)CN1C(=O)CNC(=O)c1ccnc2ccc(/C=C/c3ccc4[nH]ncc4c3)cc12 [Compound 112] | < 1000 | > 50 | < 1000 | < 1000 | 
CN1CCN(Cc2ccc(-c3ccc4nccc(C(=O)NCC(=O)N5CC(F)(F)C[C@H]5C#N)c4c3)cc2)CC1 [Compound 32] |  | > 50 | > 10000 |  | 
C[C@H](NC(=O)c1ccncc1-c1ccccc1)C(=O)N1CC(F)(F)C[C@H]1C#N [Compound 127] | > 10000 | < 25 | > 10000 | > 10000 | IC50 [10]: > 10000 nM
CC(C)Oc1ccc(-c2ccc3nccc(C(=O)NCC(=O)N4CC(F)(F)C[C@H]4C#N)c3c2)cn1 [Compound 34] | < 1000 | > 50 |  | < 1000 | 
CN1CCc2cc(-c3ccc4nccc(C(=O)NCC(=O)N5CC(F)(F)C[C@H]5C#N)c4c3)ccc2C1=O [Compound 111] | < 1000 | > 50 | 1000 to 10000 | < 1000 | 
CN1C(=O)CCc2cc(-c3ccc4nccc(C(=O)NCC(=O)N5CC(F)(F)C[C@H]5C#N)c4c3)ccc21 [Compound 110] | < 1000 |  | > 10000 |  | IC50 [3, 12]: < 3 µM
N#C[C@@H]1CC(F)(F)CN1C(=O)CNC(=O)c1ccnc2ccc(-c3ccccc3)cc12 [Compound 1, (S)—N-(2-(2-cyano-4,4-difluoropyrrolidin-1-yl)-2-oxoethyl)-6-phenylquinoline-4-carboxamide] |  | > 50 | > 10000 |  | 
CC(C)[C@H](N)C(=O)N1CCC[C@H]1B(O)O [Val-boroPro, reference compound] |  |  |  |  | IC50 ([3]; read-out: MV4-11 viability IC50, 48 hours post-treatment, Cell-Titer Glo): < 3 µM; stability of protease inhibitory activity [11]: rapidly loses protease inhibitory activity
CC(C)[C@H](NC(=O)c1ccnc2ccc(-c3ccc(Cl)cc3)cc12)C(=O)N1CC(F)(F)C[C@H]1C#N [Compound 29] | > 10000 | < 25 | 1000 to 10000 |  | IC50 [10]: > 10000 nM
N#C[C@@H]1CC(F)(F)CN1C(=O)CNC(=O)c1ccnc2ccc(-c3ccc4[nH]ncc4c3)cc12 [Compound 101] | < 1000 | > 50 |  | < 1000 | 

SMILES | IC50 [1] [nM] | inhibition at 1 µM ([5]; Table 3B) [%] | IC50 [6] [nM] | IC50 [5] [nM] | other results
COc1ccc(-c2ccc3nccc(C(=O)NCC(=O)N4CC(F)(F)C[C@H]4C#N)c3c2)cc1 [Compound 30] | < 1000 |  | 1000 to 10000 |  | IC50 [3, 12]: 3 to 10 µM
Cc1noc(C)c1-c1ccc2nccc(C(=O)NCC(=O)N3CC(F)(F)C[C@H]3C#N)c2c1 [Compound 4, (S)—N-(2-(2-cyano-4,4-difluoropyrrolidin-1-yl)-2-oxoethyl)-6-(3,5-dimethylisoxazol-4-yl)quinoline-4-carboxamide] |  | > 50 | > 10000 |  | 
Cc1ccc(-c2ccc3nccc(C(=O)NCC(=O)N4CC(F)(F)C[C@H]4C#N)c3c2)cn1 [Compound 23] | < 1000 | > 50 |  | < 1000 | 
N#C[C@@H]1CC(F)(F)CN1C(=O)CNC(=O)c1ccnc2ccc(/C=C/c3ccncc3)cc12 [Compound 19, (S,E)-N-(2-(2-cyano-4,4-difluoropyrrolidin-1-yl)-2-oxoethyl)-6-(2-(pyridin-4-yl)vinyl)quinoline-4-carboxamide] | < 1000 |  | 1000 to 10000 |  | IC50 [3, 12]: < 3 µM
N#C[C@@H]1CC(F)(F)CN1C(=O)CNC(=O)c1ccnc2ccc(/C=C/c3ccc4c(c3)CCC(=O)N4)cc12 [Compound 37] | < 1000 | > 50 |  | < 1000 | 
C[C@@H](NC(=O)c1ccncc1-c1ccccc1)C(=O)N1CC(F)(F)C[C@H]1C#N [Compound 126] | > 10000 | < 25 | > 10000 | > 10000 | IC50 [10]: > 10000 nM
CC(=O)Nc1ccccc1-c1ccc2nccc(C(=O)NCC(=O)N3CC(F)(F)C[C@H]3C#N)c2c1 [Compound 99] |  | > 50 | > 10000 |  | 
N#C[C@@H]1CC(F)(F)CN1C(=O)CNC(=O)c1ccnc2ccc(/C=C/c3cccnc3)cc12 [Compound 20] | < 1000 |  | > 10000 |  | IC50 [3, 12]: 3 to 10 µM
COCCOc1ccc(-c2ccc3nccc(C(=O)NCC(=O)N4CC(F)(F)C[C@H]4C#N)c3c2)cc1 [Compound 35] | < 1000 | > 50 |  | < 1000 | 
COc1ccc(-c2ccc3nccc(C(=O)NCC(=O)N4CC(F)(F)C[C@H]4C#N)c3c2)cn1 [Compound 33] | < 1000 | > 50 |  | < 1000 | 
C[C@H](NC(=O)c1ccnc2ccc(-c3ccc(Cl)cc3)cc12)C(=O)N1CC(F)(F)C[C@H]1C#N [Compound 27] | < 1000 | < 25 | > 10000 |  | 
N#C[C@@H]1CC(F)(F)CN1C(=O)CNC(=O)c1ccnc2ccc(-c3ccc(C4CC4)nc3)cc12 [Compound 25] | < 1000 | > 50 |  | < 1000 | 
N#C[C@@H]1CC(F)(F)CN1C(=O)CNC(=O)c1ccnc2ccc(-c3ccc4c(c3)CCC(=O)N4)cc12 [Compound 16, (S)—N-(2-(2-cyano-4,4-difluoropyrrolidin-1-yl)-2-oxoethyl)-2′-oxo-1′,2′,3′,4′-tetrahydro-[6,6′-biquinoline]-4-carboxamide] | < 1000 |  | 1000 to 10000 |  | IC50 [3, 12]: > 10 µM
N#C[C@@H]1CC(F)(F)CN1C(=O)CNC(=O)c1ccnc2ccc(/C=C/c3ccc4c(c3)CCNC4=O)cc12 [Compound 38] | < 1000 | > 50 |  | < 1000 | IC50 [3, 12]: > 10 µM
N#C[C@@H]1CC(F)(F)CN1C(=O)CNC(=O)c1ccnc2ccc(-c3ccc4cc(Cl)ccc4c3)cc12 [Compound 3, (S)-6-(6-chloronaphthalen-2-yl)-N-(2-(2-cyano-4,4-difluoropyrrolidin-1-yl)-2-oxoethyl)quinoline-4-carboxamide] | < 1000 |  | 1000 to 10000 |  | IC50 [3, 12]: 3 to 10 µM
N#C[C@@H]1CC(F)(F)CN1C(=O)CNC(=O)c1ccnc2ccc(-c3ccc4c(c3)CCCN4)cc12 [Compound 113] | < 1000 | > 50 | 1000 to 10000 | < 1000 | 
